The structures appear in SMILES notation. Where two headings read alike, the source gives them in different places.

We go through 16 molecules from patent US4190670A, “Prostaglandin derivatives” (priority 1974, dated 1980).

Series [1] deals with uterus (uterine motility). In words: Guinea-pig multiparameter test: uterine contractions. The format is in vivo. As to conditions: anaesthetized guinea-pig. How it is done:
(§1) The selective activity of the hydroxy-prostaglandin derivatives of the present invention was established by a multiparameter guinea-pig test. In this test guinea-pigs weighing 600-900 g are anaesthetized with sodium pentobarbitone (45 mg/kg, i.p.). Supplementary doses of sodium pentobarbitone (3-6 mg i.v.) are administered when required (i.e. when spontaneous respiration appears). The jugular vein is cannulated for the administration of drugs. The guinea-pig is artificially respired with N2 O/O2 (7/3), using a Keuskamp respirator.
(§2) Then the following functions are measured:
d. Measurement of uterine motility.
A polyethylene cannula is inserted into the uterus via the vagina to a depth of 2.5 cm. This is then tied off with a ligature around the cervix. The cannula is connected to a pressure transducer, the whole system being filled with liquid paraffin at a pressure of 10-20 mm Hg.

Series [2] relates to bronchioles (bronchial resistance). Nature of the series: Guinea-pig multiparameter test: bronchial resistance. The format is in vivo. As to conditions: anaesthetized guinea-pig. How it is done:
as §1, §2
b. Bronchial resistance and tracheal segment pressure.
A cannula is inserted into the trachea as close as possible to the thorax. The guinea-pig is artificially ventilated at 55 strokes/min. The pressure changes, assumed to be due to changes caused by the bronchioles, are measured by a pressure transducer attached to a side arm of the cannula. The trachea is occluded at its lower end with a blind-ended cannula, while a cannula is further introduced into the trachea as close as possible to the larynx. The system is completely filled with saline, and connected to a very sensitive pressure transducer. Changes in the pressure measured (cm H2 O) are assumed to reflect changes in the tone of the smooth muscle of the trachea. The trachea segment cannula is inserted with extreme caution so as to avoid disruption of the nerve or blood supply to the segment.

In series [3] the test system is duodenum (intestinal motility). Nature of the series: Guinea-pig multiparameter test: intestinal contractions. Particulars: anaesthetized guinea-pig. Type of series: in vivo. How it is done:
as §1, §2
c. Measurement of intestinal motility.
A balloon, containing distilled water and connected to a pressure transducer, is inserted in the duodenum of the guinea-pig. Care is taken on ligaturing the cannula to avoid stricture of the duodenum. The balloon is at a pressure of 10-20 mm Hg.

Series [4] has as its system Histamine-induced broncho-constriction. In words: Antagonism of histamine-induced broncho-constriction (guinea-pig). The format is in vivo. As to conditions: Cavia porcellus, iv, read-out: % INHIBITION (± S.D.) of histamine-induced broncho-constriction. How it is done:
The activity of the 18.xi.-, 19.xi.- and 20.xi.-hydroxy-prostaglandin derivatives on the respiratory tract misculature was further confirmed by determination of their ability to antagonize histamine-induced bronchoconstriction. This test is a modification of the guinea-pig multiparameter test, cannulations being carried out only for recording blood pressure, tracheal segment pressure and bronchial resistance.
Histamine was injected i.v. in a dose of 4 μg (as base) at regular intervals throughout the experiment. If extra doses of sodium pentobarbitone had to be administered during the course of the experiment to suppress voluntary respiration, the interval to the next dose of histamine was lengthened.
Test compounds were injected i.v. one minute before histamine in volumes less than 0.5 ml. The substances were washed in with 0.3 ml sterile saline. The lungs were artificially over-ventilated one minute prior to injection of the test compounds.
The ability of the compounds to counteract histamine-induced bronchoconstriction and the increase in tracheal segment pressure was determined using two dose levels--a low one and a high one.

For another series, the system named is rabbit eye. Nature of the series: Irritation following topical application in the rabbit eye (Draize scoring method). The format is in vivo. From the text: This effect can be studied using the Draize scoring method for determining irritation following topical application in the rabbit eye.
For series [5] the following is noted: cited from earlier work.

In series [1] (dose 100 μg), `CCC(O)CC[C@H](O)/C=C/[C@H]1CCC(=O)[C@@H]1CCCCCCC(=O)O` (relative stereo) [9-keto-15α,18.xi.-dihydroxy-prost-13(t)-enoic acid] showed a UTERINE contractions of 0. For the same molecule, the BRONCHIAL resistance in series [2] (dose 100 μg) is on record as 0. Besides, the INTESTINAL contractions in series [3] (dose 100 μg) was found to be 0. Besides, in series [4], the inhibition in vivo at 0.001 mg turned out to be 25.9% and the inhibition in vivo at 0.1 mg is around 80%.
The molecule `CC(O)CCC[C@H](O)/C=C/[C@H]1CCC(=O)[C@@H]1CCCCCCC(=O)O` (relative stereo) [9-keto-15α,19.xi.-dihydroxy-prost-13(t)-enoic acid] showed a UTERINE contractions in series [1] (dose 100 μg) of 0. The molecule further gave a BRONCHIAL resistance in series [2] (dose 100 μg) of 0. For the same molecule, the INTESTINAL contractions in series [3] (dose 100 μg) is recorded as 0. In series [4], the inhibition in vivo at 0.001 mg turned out to be 23.9% and the inhibition in vivo at 0.1 mg stood at 88.1%.
On to `CC(O)CCC[C@@H](O)/C=C/[C@H]1CCC(=O)[C@@H]1CCCCCCC(=O)O` (relative stereo) [9-keto-15β,19.xi.-dihydroxy-prost-13(t)-enoic acid], for which the inhibition in vivo at 0.5 mg in series [4] was around 85%.
Same read-out and setting: the figure for `CC(O)CCC[C@@H](O)/C=C/[C@H]1CC[C@H](O)[C@@H]1CCCCCCC(=O)O` (relative stereo) [9α,15β,19.xi.-trihydroxy-prost-13-(t)-enoic acid] is around 60%.
As for `CCC(O)CC[C@H](O)/C=C/[C@H]1CC[C@@H](O)[C@@H]1CCCCCCC(=O)O` (relative stereo) [9β,15α,18.xi.-trihydroxy-prost-13(t)-enoic acid], in series [1] (dose 500 μg), the UTERINE contractions was found to be 0. Moreover, the BRONCHIAL resistance in series [2] (dose 500 μg) amounted to 0. The INTESTINAL contractions in series [3] (dose 500 μg) is listed as 0. Besides, the inhibition in vivo at 0.1 mg in series [4] turned out to be 28.1%.
Molecule `CC(O)CCC[C@H](O)/C=C/[C@H]1CC[C@@H](O)[C@@H]1CCCCCCC(=O)O` (relative stereo) [9β,15α,19.xi.-trihydroxy-prost-13(t)-enoic acid] returned a UTERINE contractions in series [1] (dose 500 μg) of 0. The BRONCHIAL resistance in series [2] (dose 500 μg) was 0. This molecule came in with an INTESTINAL contractions in series [3] (dose 500 μg) of 0. Besides, the inhibition in vivo at 0.1 mg in series [4] worked out at 62.5%.
In series [1] (dose 500 μg), `O=C(O)CCCCCC[C@H]1[C@H](O)CC[C@@H]1/C=C/[C@@H](O)CCCCCO` (relative stereo) [9β,15α,20-trihydroxy-prost-13(t)-enoic acid] had a UTERINE contractions of 0. Further, the BRONCHIAL resistance in series [2] (dose 500 μg) is 0. Besides, the INTESTINAL contractions in series [3] (dose 500 μg) is on record as 0. Moreover, the inhibition in vivo at 0.1 mg in series [4] came out at 52.9%.
For the molecule `CCC(O)CC[C@H](O)/C=C/[C@H]1[C@H](O)CC(=O)[C@@H]1CCCCCCC(=O)O` (stereo partly drawn) [9-keto-11α,15α,18.xi.-trihydroxy-prost-13(t)-enoic acid], the inhibition in vivo at 0.001 mg in series [4] was around 70%.
The same measure, in the same setting: for `CCC(O)CC[C@H](O)/C=C/[C@H]1[C@H](O)CC(=O)[C@@H]1C/C=C\CCCC(=O)O` (stereo partly drawn) [9-keto-11α,15α,18.xi.-trihydroxy-prosta-5(c),13(t)-dienoic acid] the value was around 35%; for `CC(O)CCC[C@H](O)/C=C/[C@H]1[C@H](O)CC(=O)[C@@H]1CCCCCCC(=O)O` (stereo partly drawn) [9-keto-11α,15α,19.xi.-trihydroxy-prost-13(t)-enoic acid], around 60%.
With `CC(O)CCC[C@H](O)/C=C/[C@H]1[C@H](O)CC(=O)[C@@H]1C/C=C\CCCC(=O)O` (stereo partly drawn) [9-keto-11α,15α,19.xi.-trihydroxy-prosta-5(c),13(t)-dienoic acid], the inhibition in vivo at 0.001 mg in series [4] was around 70%.
Still for that read-out and setting: the figure for `CCC(O)CC[C@H](O)/C=C/[C@H]1CCC(=O)[C@@H]1C/C=C\CCCC(=O)O` (stereo partly drawn) [9-keto-15α,18.xi.-dihydroxy-prosta-5(c),13(t)-dienoic acid] is 45%; for `CC(O)CCC[C@H](O)/C=C/[C@H]1CCC(=O)[C@@H]1C/C=C\CCCC(=O)O` (stereo partly drawn) [9-keto-15α,19.xi.-dihydroxy-prosta-5(c),13(t)-dienoic acid] it is 50.3%.
With `O=C(O)CCC/C=C\C[C@H]1C(=O)CC[C@@H]1/C=C/[C@@H](O)CCCCCO` [9-keto-15α,20-dihydroxy-prosta-5(c),13(t)-dienoic acid], the inhibition in vivo at 0.001 mg in series [4] is 60.7%.
In turn, `CCCCC[C@H](O)/C=C/[C@H]1[C@H](O)CC(=O)[C@@H]1CCCCCCC(=O)O` [PGE1, 9-keto-11α,15α-dihydroxy-prost-13(t)-enoic acid, reference compound] returned a threshold irritant dose in the series on rabbit eye of 1 μg/eye. Moreover, the UTERINE contractions in series [1] (dose 5 μg) is recorded as 0. In series [2] (dose 5 μg), the BRONCHIAL resistance is on record as 0. Also, the inhibition in vivo at 0.0001 mg in series [4] (dose 0.1 μg i.v., one minute before histamine 4 μg i.v.) stood at 27.6%. Moreover, in series [4] (dose 1 μg i.v., one minute before histamine 4 μg i.v.), the inhibition in vivo at 0.001 mg was determined as 53.2%. In addition, the inhibition in vivo at 0.005 mg in series [4] (dose 5.0 μg i.v., one minute before histamine 4 μg i.v.) was around 88%.
Regarding `CCCCC[C@H](O)/C=C/[C@H]1[C@H](O)CC(=O)[C@@H]1C/C=C\CCCC(=O)O` [PGE2, 9-keto-11α,15α-dihydroxy-prosta-5(c),13(t)-dienoic acid], the “persistant coughing on aerosol use” value in series [5] is reported as “persistant coughing”.
